Reference: paper PMC3656107, “Polymorphisms in the F8 Gene and MHC-II Variants as Risk Factors for the Development of Inhibitory Anti-Factor VIII Antibodies during the Treatment of Hemophilia A: A Computational Assessment” (PLoS Computational Biology, 2013)

Experiments:
MHC-II DRB1*03:01 [1] = target: T1, MHC-II DRB1*03:01 (Homo sapiens, UniProt P01903+P01911, A100K/A102G/A103R/A169T/F55Y/I96L/K41T/L162R/M171V/P40S/Q125H/Q178H/Q39Y/R42S/S66N/T106N/T262R/W38E/Y61H); assay: Cell-free REVEAL class II binding assay; settings: signal of test peptide as percentage of allele-specific positive control peptide, fluorescence, conformation-specific monoclonal antibody
Excerpt: (§1) We used a proprietary high throughput, REVEAL binding assay (ProImmune, www.proimmune.com) to estimate the binding of individual test peptides to the following MHC-II variants: DRB1*03:01, DRB1*04:01, DRB1*07:01, DRB1*11:01, DRB1*15:01 and DRB1*15:03 [28]. Detection of a peptide binding to each MHC-II protein is based on the presence or absence of the native conformation of the MHC-peptide complex. The peptide-MHC-II complex is detected by an increase in a fluorescence signal due to the binding of a specific monoclonal antibody. Each test-peptide is given a score relative to a positive control peptide, which is a known T-cell epitope for that MHC-II molecule. The score is reported quantitatively as a percentage of the signal generated by the test peptide compared with the positive control peptide. Assay performance is evaluated by including in each set of measurements an intermediate control peptide which is known to bind the MHC-II molecule but with a lower affinity than the positive control peptide. Note that the positive control peptide used to determine the binding score is different from the positive control peptides depicted in the figures, which are known T-cell epitopes identified in the FVIII molecule.

MHC-II DRB1*04:01 [2] = target: T2, MHC-II DRB1*04:01 (Homo sapiens, UniProt P01903+P01911, A100K/A169T/F76Y/I96L/K127E/L162R/M171V/N62H/P40V/Q125Y/R42H/S133A/S149N/S66Y/V115G/V209L/W38E); assay: Cell-free REVEAL class II binding assay; settings: signal of test peptide as percentage of allele-specific positive control peptide, fluorescence, conformation-specific monoclonal antibody
Excerpt: as §1

MHC-II DRB1*15:01 [3] = target: T3, MHC-II DRB1*15:01 (Homo sapiens, UniProt P01903+P01911); assay: Cell-free REVEAL class II binding assay; settings: signal of test peptide as percentage of allele-specific positive control peptide, fluorescence, conformation-specific monoclonal antibody
T3 construct: purchased ProImmune
Excerpt: as §1

MHC-II DRB1*07:01 [4] = target: T4, MHC-II DRB1*07:01 (Homo sapiens, UniProt P01903+P01911, A100R/A102G/A103Q/D57E/D86V/E43K/F76Y/K127E/L162R/M171V/P40G/Q125H/Q99D/R33Q/R42Y/R54Q/S133A/S66F/T210M/V115G/Y107V/Y59L/Y89S); assay: Cell-free REVEAL class II binding assay; settings: signal of test peptide as percentage of allele-specific positive control peptide, fluorescence, conformation-specific monoclonal antibody
Excerpt: as §1

MHC-II DRB1*11:01 [5] = target: T5, MHC-II DRB1*11:01 (Homo sapiens, UniProt P01903+P01911, A100R/A169T/A87E/I96F/K41T/L162R/M171V/P40S/Q125H/Q178H/Q39Y/Q99D/R42S/S66Y/T262R/V115G/W38E); assay: Cell-free REVEAL class II binding assay; settings: signal of test peptide as percentage of allele-specific positive control peptide, fluorescence, conformation-specific monoclonal antibody
Excerpt: as §1

MHC-II DRB1*15:03 [6] = target: T6, MHC-II DRB1*15:03 (Homo sapiens, UniProt P01903+P01911, Y59H); assay: Cell-free REVEAL class II binding assay; settings: signal of test peptide as percentage of allele-specific positive control peptide, fluorescence, conformation-specific monoclonal antibody
T6 construct: purchased ProImmune
Excerpt: as §1

MHC-II DRB1*03:01 [7] = target: T1, MHC-II DRB1*03:01; assay: Cell-free REVEAL class II stability assay; settings: half-life of peptide-MHC-II complex (h, capped at 120) x Binding Score / 100, conformational ELISA
Description: (§2) We measured the half-life of each peptide-MHC-II complex using REVEAL peptide-MHC affinity assays developed by ProImmune Ltd. (Oxford, UK). On-rates of peptides were measured over a 96-hr period at 10°C. A unique positive control peptide was used for each MHC-II allele. Samples of assembling peptide-MHC complexes were taken at defined time points and snap-frozen in liquid nitrogen prior to analysis. Assembly of peptide-MHC complexes was detected using a conformational ELISA involving an anti-HLA antibody. On-rates were calculated by fitting data to a one-phase association curve: [drawing 1] To determine the off-rates of the peptides, samples of dissociating complexes were taken at defined time points and frozen in liquid nitrogen prior to analysis. Percent denaturation of peptide-MHC complexes was also detected using a conformational ELISA. Off-rates were calculated by fitting data to a one-phase dissociation curve: [drawing 2] On- and off-rate half-life values (t1/2) were calculated from the rate constant (k) using the following equation: [drawing 3] To obtain a normalized stability score, the half-life values were multiplied by the Binding Score (see above) and divided by 100.

MHC-II DRB1*04:01 [8] = target: T2, MHC-II DRB1*04:01; assay: Cell-free REVEAL class II stability assay; settings: half-life of peptide-MHC-II complex (h, capped at 120) x Binding Score / 100, conformational ELISA
Description: as §2

MHC-II DRB1*15:01 [9] = target: T3, MHC-II DRB1*15:01; assay: Cell-free REVEAL class II stability assay; settings: half-life of peptide-MHC-II complex (h, capped at 120) x Binding Score / 100, conformational ELISA
Description: as §2

MHC-II DRB1*07:01 [10] = target: T4, MHC-II DRB1*07:01; assay: Cell-free REVEAL class II stability assay; settings: half-life of peptide-MHC-II complex (h, capped at 120) x Binding Score / 100, conformational ELISA
Description: as §2

MHC-II DRB1*11:01 [11] = target: T5, MHC-II DRB1*11:01; assay: Cell-free REVEAL class II stability assay; settings: half-life of peptide-MHC-II complex (h, capped at 120) x Binding Score / 100, conformational ELISA
Description: as §2

MHC-II DRB1*15:03 [12] = target: T6, MHC-II DRB1*15:03; assay: Cell-free REVEAL class II stability assay; settings: half-life of peptide-MHC-II complex (h, capped at 120) x Binding Score / 100, conformational ELISA
Description: as §2

T1 sequence (P01903 26-254 limits assumed, other chains not shown): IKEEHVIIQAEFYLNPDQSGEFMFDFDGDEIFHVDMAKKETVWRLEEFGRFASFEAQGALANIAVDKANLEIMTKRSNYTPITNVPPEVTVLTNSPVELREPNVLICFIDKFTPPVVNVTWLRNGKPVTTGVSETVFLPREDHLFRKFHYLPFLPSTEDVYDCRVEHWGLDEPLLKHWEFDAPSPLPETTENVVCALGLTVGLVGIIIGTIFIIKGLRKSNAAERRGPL
T5 sequence (P01903 26-254 limits assumed, other chains not shown): as above
T6 sequence (P01903 26-254, other chains not shown): as the sequence (P01903 26-254 limits assumed, other chains not shown) above

Sequence | Binding Score (MHC-II DRB1*03:01 [1]) | Binding Score (MHC-II DRB1*04:01 [2]) | Binding Score (MHC-II DRB1*15:01 [3]) | Binding Score (MHC-II DRB1*07:01 [4]) | Binding Score (MHC-II DRB1*11:01 [5]) | Binding Score (MHC-II DRB1*15:03 [6]) | Stability Index (MHC-II DRB1*03:01 [7]) | Stability Index (MHC-II DRB1*04:01 [8]) | Stability Index (MHC-II DRB1*15:01 [9]) | Stability Index (MHC-II DRB1*07:01 [10]) | Stability Index (MHC-II DRB1*11:01 [11]) | Stability Index (MHC-II DRB1*15:03 [12])
DIEKTDPWFAHRTPM [synthetic wild type FVIII 15 mer peptide, region of ns-SNP R776G] | 0.0% | 7.6% | 2.6% | 0.0% | 7.3% | 0.1% | 0.0 | 0.4 | 0.2 | 0.0 | 0.2 | 0.0
DVRPLYSRRLPKGVK [synthetic wild type FVIII 15 mer peptide, region of ns-SNP R484H] | 0.1% | 0.2% | 56.2% | 0.2% | 16.9% | 2.4% | 0.2 | 0.0 | 67.4 | 0.2 | 3.0 | 2.8
FSSLYISQFIIMYSL [synthetic wild type FVIII 15 mer peptide] | 0.6% | 1.5% | 23.3% | 0.0% | 0.3% | 0.3% | 0.0 | 0.4 | 28.0 | 0.0 | 0.0 | 0.1
GITDVRPLYSRRLPK [synthetic wild type FVIII 15 mer peptide, region of ns-SNP R484H] | 10.8% | 0.8% | 29.1% | 2.0% | 13.2% | 2.6% | 3.7 | 0.1 | 34.9 | 0.6 | 0.6 | 3.1
GPTKSDPRCLTRYYS [synthetic wild type FVIII 15 mer peptide] | 4.8% | 0.5% | 63.6% | 0.0% | 1.2% | 3.8% | 1.6 | 0.1 | 7.2 | 0.0 | 0.0 | 0.0
HKMVYEDTLTLFPFS [synthetic wild type FVIII 15 mer peptide] | 56.5% | 24.2% | 2.4% | 0.0% | 5.4% | 0.1% | 14.2 | 5.5 | 2.9 | 0.0 | 0.2 | 0.1
IARYIRLHPTHYSIR [synthetic wild type FVIII 15 mer peptide] | 1.0% | 61.3% | 3379.6% | 0.0% | 150.5% | 103.9% | 0.0 | 38.8 | 4055.5 | 0.0 | 36.2 | 124.6
IFNPPIIARYIRLHP [synthetic wild type FVIII 15 mer peptide] | 0.7% | 1.7% | 1224.5% | 0.0% | 61.5% | 3.8% | 0.0 | 0.0 | 1469.4 | 0.0 | 6.3 | 4.5
